Test results as given in the supplement of paper PMC10307832.

Tests used:
Assay in all cases: relative viability (nuclei count vs DMSO), 5 days (fraction); higher = more cells survive
[1] = compound: C/C(=N\NC(=S)N1CCC1)/C2=CC=CC=N2 + N=C(N)NC(=N)NCCc1ccccc1 [Phenformin] (partner 250 µM)
How it was run: (§1)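 Lung cancer cell lines in 1536-well plates got either a single drug or a fixed anchor-drug dose together with five library-drug doses (not always all listed) in √10 steps, by pin tool, on the day after seeding. Nuclei were counted after 5 days, and relative viability is the treated-to-vehicle ratio of nuclei counts. Values are medians of duplicate plates.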

[2] = compound: C/C(=N\NC(=S)N1CCC1)/C2=CC=CC=N2 + Nc1nc2[nH]cc(CCc3ccc(C(=O)N[C@@H](CCC(=O)O)C(=O)O)cc3)c2c(=O)[nH]1 [Pemetrexed] (partner 0.2 µM)
How it was run: as §1

[3] = compound: C/C(=N\NC(=S)N1CCC1)/C2=CC=CC=N2 + Cc1nc(Nc2ncc(C(=O)Nc3c(C)cccc3Cl)s2)cc(N2CCN(CCO)CC2)n1 [Dasatinib] (partner 0.075 µM)
How it was run: as §1

[4] = compound: C/C(=N\NC(=S)N1CCC1)/C2=CC=CC=N2 + Cc1cc(Nc2cc(N3CCN(C)CC3)nc(Sc3ccc(NC(=O)C4CC4)cc3)n2)n[nH]1 [Tozasertib] (partner 0.1 µM)
How it was run: as §1

[5] = compound: C/C(=N\NC(=S)N1CCC1)/C2=CC=CC=N2 + O=C(CCCCCCC(=O)Nc1ccccc1)NO [Vorinostat] (partner 1 µM)
How it was run: as §1

[6] = compound: C/C(=N\NC(=S)N1CCC1)/C2=CC=CC=N2 + O=C(c1cc(Cc2n[nH]c(=O)c3ccccc23)ccc1F)N1CCN(C(=O)C2CC2)CC1 [Olaparib] (partner 8 µM)
How it was run: as §1

[7] = compound: C/C(=N\NC(=S)N1CCC1)/C2=CC=CC=N2 + COc1cc2c(Oc3ccc(NC(=O)C4(C(=O)Nc5ccc(F)cc5)CC4)cc3F)ccnc2cc1OCCCN1CCOCC1 [Foretinib] (partner 0.25 µM)
How it was run: as §1

[8] = compound: C/C(=N\NC(=S)N1CCC1)/C2=CC=CC=N2 + CC(=O)c1c(C)c2cnc(Nc3ccc(N4CCNCC4)cn3)nc2n(C2CCCC2)c1=O [Palbociclib] (partner 0.5 µM)
How it was run: as §1

[9] = compound: C/C(=N\NC(=S)N1CCC1)/C2=CC=CC=N2 + COc1cccc2cc(-c3nc([C@H]4CC[C@H](C(=O)O)CC4)n4ncnc(N)c34)[nH]c12 [OSI-027] (partner 0.5 µM)
How it was run: as §1

[10] = compound: C/C(=N\NC(=S)N1CCC1)/C2=CC=CC=N2 + CCNC(=O)c1noc(-c2cc(C(C)C)c(O)cc2O)c1-c1ccc(CN2CCOCC2)cc1 [Luminespib] (partner 0.01 µM)
How it was run: as §1

[11] = compound: C/C(=N\NC(=S)N1CCC1)/C2=CC=CC=N2 + NC(=O)Nc1cc(-c2cccc(F)c2)sc1C(=O)N[C@H]1CCCNC1 [AZD7762] (partner 0.2 µM)
How it was run: as §1

[12] = compound: C/C(=N\NC(=S)N1CCC1)/C2=CC=CC=N2 + CC(=O)Nc1cccc(-n2c(=O)n(C3CC3)c(=O)c3c(Nc4ccc(I)cc4F)n(C)c(=O)c(C)c32)c1 [Trametinib] (partner 0.02 µM)
How it was run: as §1

[13] = compound: C/C(=N\NC(=S)N1CCC1)/C2=CC=CC=N2 + Nc1ncn([C@H]2C[C@H](O)[C@@H](CO)O2)c(=O)n1 [Decitabine] (partner 2 µM)
How it was run: as §1

[14] = compound: C/C(=N\NC(=S)N1CCC1)/C2=CC=CC=N2
How it was run: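 Five library-drug doses, separated by factors of √10, were pinned into 1536-well plates holding lung cancer cell lines after an overnight stay at 37 °C. Cells were fixed, permeabilised and Hoechst-stained in one step after 5 days without medium change, then imaged at 4×. Viability compares treated-well with vehicle-well nuclei, counted in MetaXpress, as a median across plates. Passing plates had control CV below 25% and at least one doubling.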

SW 900
relative viability ([1]; first compound 0.05 µM): 0.0993
relative viability ([1]; first compound 0.1581 µM): 0.114
relative viability ([1]; first compound 0.5 µM): 0.105
relative viability ([1]; first compound 1.581 µM): 0.0942
relative viability ([1]; first compound 5 µM): 0.147
relative viability ([2]; first compound 0.05 µM): 0.127
relative viability ([2]; first compound 0.1581 µM): 0.081
relative viability ([2]; first compound 0.5 µM): 0.0901
relative viability ([2]; first compound 1.581 µM): 0.122
relative viability ([2]; first compound 5 µM): 0.196
relative viability ([3]; first compound 0.05 µM): 0.129
relative viability ([3]; first compound 0.1581 µM): 0.134
relative viability ([3]; first compound 0.5 µM): 0.112
relative viability ([3]; first compound 1.581 µM): 0.0964
relative viability ([3]; first compound 5 µM): 0.248
relative viability ([4]; first compound 0.05 µM): 0.155
relative viability ([4]; first compound 0.1581 µM): 0.107
relative viability ([4]; first compound 0.5 µM): 0.0961
relative viability ([4]; first compound 1.581 µM): 0.14
relative viability ([4]; first compound 5 µM): 0.178
relative viability ([5]; first compound 0.05 µM): 0.145
relative viability ([5]; first compound 0.1581 µM): 0.149
relative viability ([5]; first compound 0.5 µM): 0.0776
relative viability ([5]; first compound 1.581 µM): 0.125
relative viability ([5]; first compound 5 µM): 0.183
relative viability ([6]; first compound 0.05 µM): 0.233
relative viability ([6]; first compound 0.1581 µM): 0.116
relative viability ([6]; first compound 0.5 µM): 0.135
relative viability ([6]; first compound 1.581 µM): 0.164
relative viability ([6]; first compound 5 µM): 0.16
relative viability ([7]; first compound 0.05 µM): 0.117
relative viability ([7]; first compound 0.1581 µM): 0.114
relative viability ([7]; first compound 0.5 µM): 0.0636
relative viability ([7]; first compound 1.581 µM): 0.068
relative viability ([7]; first compound 5 µM): 0.15
relative viability ([8]; first compound 0.05 µM): 0.171
relative viability ([8]; first compound 0.1581 µM): 0.136
relative viability ([8]; first compound 0.5 µM): 0.134
relative viability ([8]; first compound 1.581 µM): 0.175
relative viability ([8]; first compound 5 µM): 0.197
relative viability ([9]; first compound 0.05 µM): 0.0629
relative viability ([9]; first compound 0.1581 µM): 0.1
relative viability ([9]; first compound 0.5 µM): 0.0605
relative viability ([9]; first compound 1.581 µM): 0.0573
relative viability ([9]; first compound 5 µM): 0.119
relative viability ([10]; first compound 0.05 µM): 0.162
relative viability ([10]; first compound 0.1581 µM): 0.144
relative viability ([10]; first compound 0.5 µM): 0.106
relative viability ([10]; first compound 1.581 µM): 0.124
relative viability ([10]; first compound 5 µM): 0.184
relative viability ([11]; first compound 0.05 µM): 0.188
relative viability ([11]; first compound 0.1581 µM): 0.122
relative viability ([11]; first compound 0.5 µM): 0.0988
relative viability ([11]; first compound 1.581 µM): 0.188
relative viability ([11]; first compound 5 µM): 0.171
relative viability ([12]; first compound 0.05 µM): 0.125
relative viability ([12]; first compound 0.1581 µM): 0.165
relative viability ([12]; first compound 0.5 µM): 0.137
relative viability ([12]; first compound 1.581 µM): 0.142
relative viability ([12]; first compound 5 µM): 0.168
relative viability ([13]; first compound 0.05 µM): 0.21
relative viability ([13]; first compound 0.1581 µM): 0.231
relative viability ([13]; first compound 0.5 µM): 0.16
relative viability ([13]; first compound 1.581 µM): 0.201
relative viability ([13]; first compound 5 µM): 0.17
relative viability ([14]; 0.05 µM): 0.147
relative viability ([14]; 0.1581 µM): 0.135
relative viability ([14]; 0.5 µM): 0.0841
relative viability ([14]; 1.581 µM): 0.127
relative viability ([14]; 5 µM): 0.188
